Several values for one entry are separate records, joined by “and”; a condition that tells them apart may be missing. Equal entries are not always repeated. Where two headings read alike, the source gives them in different places.
What was measured:
[1] = tested on: human MAO B; parameters: method as in earlier work; settings: cited from earlier work
[2] = molecular target: T1, rat σ2R (Rattus norvegicus, UniProt Q5U3Y7); test: σ2R competitive radioligand binding assay (rat liver membranes)
T1 construct: The thawed membrane preparation of rat liver (about 100 µg of protein) was incubated; from tissue; host or cells: rat liver membranes
T1 sequence (Q5U3Y7 1-176): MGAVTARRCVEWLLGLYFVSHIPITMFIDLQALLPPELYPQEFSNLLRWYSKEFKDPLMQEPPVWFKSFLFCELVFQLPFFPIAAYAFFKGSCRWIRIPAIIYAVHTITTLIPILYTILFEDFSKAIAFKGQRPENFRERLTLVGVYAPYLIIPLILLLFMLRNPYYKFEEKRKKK
Experimental: Two rat livers were cut into small pieces and homogenized using a potter [Elvehjem Potter (B. Braun Biotech International, Melsungen, Germany); 500–800 rpm, 10 up-and-down strokes] in 6 volumes of cold 0.32 M sucrose. The suspension was centrifuged at 1200× g for 10 min at 4 °C. The supernatant was separated and centrifuged at 31,000× g for 20 min at 4 °C. The pellet was resuspended in 5–6 volumes of buffer (50 mM TRIS, pH 8.0) and incubated at rt for 30 min. After the incubation, the suspension was centrifuged again at 31,000× g for 20 min at 4 °C. The final pellet was resuspended in 5–6 volumes of buffer and stored at −80 °C in 1.5 mL portions containing about 2 mg of protein/mL.
The stock solution of the respective test compound (10 mM in DMSO) was diluted with the assay buffer to obtain the required test solutions for the assay. All binding experiments were carried out in duplicates in 96-well multiplates. The concentrations given are the final concentrations in the assay. The assays were performed with the radioligand [^3H]-DTG (specific activity 50 Ci/mmol; ARC, St. Louis, MO, USA). The thawed membrane preparation of rat liver (about 100 µg of protein) was incubated with various concentrations of the test compound, 3 nM [^3H]-DTG, and a buffer containing (+)-pentazocine (500 nM (+)-pentazocine in 50 mM TRIS, pH 8.0) at rt. The non-specific binding was determined with 10 μM non-labeled DTG. The Kd value of [^3H]-DTG is 17.9 nM [43].
Generally, the assays were performed by adding 50 µL of the respective assay buffer and 50 µL of the test compound solution in various concentrations (10^−5, 10^−6, 10^−7, 10^−8, 10^−9, and 10^−10 mol/L), 50 µL of the corresponding radioligand solution, and 50 µL of the respective receptor preparation into each well of the multiplate (total volume 200 µL). The receptor preparation was added last. During the incubation, the multiplates were shaken at a speed of 500−600 rpm at rt. The assays were terminated after 120 min by rapid filtration using the harvester (MicroBeta FilterMate 96; PerkinElmer LAS, Rodgau, Germany) equipped with filtermats presoaked in 0.5% aqueous polyethylenimine solution for 2 h at rt before use. During the filtration, each well was washed five times with 300 µL of water. Subsequently, the filtermats were dried at 95 °C. The solid scintillator (Meltilex; PerkinElmer LAS, Rodgau, Germany) was melted on the dried filtermats at a temperature of 95 °C for 5 min. After solidifying the scintillator at rt, the trapped radioactivity in the filtermats was measured with the scintillation analyzer (MicroBeta Trilux; PerkinElmer LAS, Rodgau, Germany). Each position on the filtermat corresponds to one well of the multiplate and was measured for 5 min with the [^3H]-counting protocol. The overall counting efficiency was 20%. The IC50 values were calculated with the program GraphPad Prism® 3.0 (GraphPad Software, San Diego, CA, USA) by nonlinear regression analysis. Subsequently, the IC50 values were transformed into Ki values using the equation of Cheng and Prusoff. The Ki values are given as the mean value ± SEM from three independent experiments.

[3] = tested on: EeAChE; settings: cited from earlier work
[4] = molecular target: T2, human σ1R (Homo sapiens, UniProt Q99720); test: hσ1R competitive radioligand binding assay; settings: for Selectivity Index of Rat σ2R/Human σ1R: Ki rat σ2R/Ki hσ1R
T2 construct: expressed in transfected cells; host or cells: HEK293 (provided by Olivier Soriani, Université de Nice Sophia-Antipolis)
T2 sequence (Q99720 whole entry): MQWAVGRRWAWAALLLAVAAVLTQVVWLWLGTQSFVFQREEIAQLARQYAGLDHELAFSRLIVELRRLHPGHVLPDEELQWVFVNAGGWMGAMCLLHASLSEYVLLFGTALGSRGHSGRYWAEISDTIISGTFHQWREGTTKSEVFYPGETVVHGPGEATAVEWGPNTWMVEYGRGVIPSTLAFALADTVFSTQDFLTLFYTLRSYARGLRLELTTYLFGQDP
Experimental: The hσ1R competitive binding assay was performed as previously reported. In brief, radioligand competition experiments were performed using preparations from HEK293 cells stably transfected with human σ1R cells (provided by Olivier Soriani, Université de Nice Sophia-Antipolis, Nice, France). The binding of the σ1R specific radioligand (+)-[^3H]pentazocine (1.051 TBq/mmol; PerkinElmer LAS GmbH, Rodgay, Germany) was measured at equilibrium in the presence of the test compounds at different concentrations (10 mM stock solutions in DMSO; final concentrations 10^−5–10^−11 M, 0.1 % DMSO) in TRIS buffer at pH 7.4 (50 mM TRIS-HCl, 120 mM NaCl, 5 mM KCl, 2 mM CaCl2, 1 mM MgCl2). Total binding was measured without the addition of a competitor, and non-specific binding was measured with 10 µM haloperidol as the competitor. The vials were incubated at room temperature (rt) (~21 °C) at 300 rpm. The incubation was terminated after 60 min by vacuum filtration using Whatman® GF/B glass-fiber filtermats (#FPD-100, Brandel Inc., Gaithersburg, MD, USA), soaked with freshly prepared 0.3% polyethyleneimine, using a 48-well harvester (Brandel Inc., Gaithersburg, MD, USA). Filters were washed four times with cold buffer (50 mM TRIS-HCl, pH 7.4 at 4 °C) and placed in scintillation vials. In total, 3 mL of a liquid scintillation cocktail (Ultima Gold TM; PerkinElmer, Waltham, MA, USA) was filled in each vial, and the vials were shaken at rt at 375 rpm for 120 min. Filter-bound radioactivity was measured in a Hidex 600 SL liquid scintillation counter (Hidex, Turku, Finnland). By performing nonlinear regression analysis of the binding curves (GraphPad Prism 3.0, GraphPad Software, Inc., La Jolla, CA, USA), the IC50 values were obtained, and the equilibrium inhibition constants Ki were calculated according to the Cheng–Prusoff equation [36], using the in-house determined equilibrium dissociation constant KD of 33 nM (+)-[^3H]pentazocine. Each test compound was measured in 2–3 independent experiments, each performed in triplicate.

[5] = tested on: eqBuChE; settings: cited from earlier work; for IC50: read-out: IC50 BuChE
[6] = tested on: human MAO A; settings: cited from earlier work
[7] = molecular target: gpσ1R (Cavia porcellus, UniProt Q60492); test: gpσ1R affinity; format: binding
gpσ1R, sequence (Q60492 whole entry): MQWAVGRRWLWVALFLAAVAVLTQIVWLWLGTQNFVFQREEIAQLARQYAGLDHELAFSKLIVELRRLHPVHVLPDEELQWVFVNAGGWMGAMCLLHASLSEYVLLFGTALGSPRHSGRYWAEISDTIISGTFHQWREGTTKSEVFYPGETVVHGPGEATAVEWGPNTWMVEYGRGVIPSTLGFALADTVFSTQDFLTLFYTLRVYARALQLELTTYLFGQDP

[8] = rat liver membrane preparations, radioligand [3H]ditolylguanidine, (+)-pentazocine to mask σ1R, mean ± SEM, read-out: Ki Rat σ2R
[9] = membrane preparations of HEK-293 cells stably transfected with hσ1R, radioligand (+)-[3H]pentazocine, two experiments: mean (individual values), three or more: mean ± SD, read-out: Ki Human σ1R

| Structure (SMILES) | IC50 MAO B [1] | Ki [2] [nM] | IC50 [3] [nM] | Ki [4] | Selectivity Index of Rat σ2R/Human σ1R [4] | IC50 BuChE ([5]; eqBuChE) | IC50 MAO A [6] | IC50 ([5]; eqBuChE) [nM] | Ki [2, 8] [nM] | Ki [4, 9] | Ki [7] [nM] | fold higher affinity for hσ1R than the standards NE-100 and PB2 ([4]; compared with the standards) [fold] | IC50 ([5]; as given in the text) [nM] | IC50 [6] [nM] | fold more affine for rat σ2R than for hσ1R ([2]; Ki hσ1R vs Ki rat σ2R) [fold] |
| --- | --- | --- | --- | --- | --- | --- | --- | --- | --- | --- | --- | --- | --- | --- | --- |
| C#CCNc1nc(NC2CCN(Cc3ccccc3)CC2)c(C#N)cc1C#N [Compound 1] | n.i. | 173 | 530 ± 70 | 29.2 nM | 5.9 | n.i. | n.i. | – | – | – | – | – | – | – | – |
| C#CCNc1nc(NCCC2CCN(Cc3ccccc3)CC2)c(C#N)cc1C#N [Compound 2] | n.i. | 42 ± 8 | 16 ± 2 | 7.57 ± 0.59 nM | 5.6 | n.i. | n.i. | – | – | – | – | – | – | – | – |
| C#CCNc1nc(NCCCC2CCN(Cc3ccccc3)CC2)c(C#N)cc1C#N [Compound 3] | n.i. | 37 ± 5 | 4.7 ± 0.5 | ~3 nM and 2.97 nM | 13 | – | n.i. | 2030 ± 370 | – | – | – | – | – | – | – |
| C#CCNc1nc(NCCCCC2CCN(Cc3ccccc3)CC2)c(C#N)cc1C#N [Compound 4] | n.i. | – | 1.3 ± 0.3 | – | 41 | – | n.i. | 530 ± 60 | 163 ± 50 | 3.97 ± 0.66 nM | – | – | – | – | – |
| C#CCN(C)c1nc(NCCC2CCN(Cc3ccccc3)CC2)c(C#N)cc1C#N [Compound 5, 2-{[2-(1-benzylpiperidin-4-yl)ethyl]amino}-6-[methyl(prop-2-yn-1-yl)amino]pyridine-3,5-dicarbonitrile] | n.i. | 389 | 13 | 1.45 ± 0.43 nM | 270 | – | n.i. | – | – | – | 2.9 | ~1.3 | 3100 | – | – |
| C#CCN(C)c1nc(NCCCC2CCN(Cc3ccccc3)CC2)c(C#N)cc1C#N [Compound 6] | n.i. | 129 ± 26 | 6.2 ± 1.4 | ~3 nM and 3.05 nM | 42 | – | – | 1120 ± 160 | – | – | – | – | – | 6110 ± 1400 | – |
| C#CCN(C)c1nc(NCCCCC2CCN(Cc3ccccc3)CC2)c(C#N)cc1C#N [Compound 7] | n.i. | – | 1.1 ± 0.3 | – | – | – | – | 600 ± 80 | 288 | ~3 nM and 3.09 nM | – | – | – | – | – |
| C#CCNc1nc(NC2CCN(Cc3ccccc3)CC2)c(C#N)c(-c2ccccc2)c1C#N [Compound 8] | n.i. | 141 | 4000 ± 100 | 27.3 nM | 5.2 | n.i. | – | – | – | – | – | – | – | 25 ± 1 | – |
| C#CCNc1nc(NCCCC2CCN(Cc3ccccc3)CC2)c(C#N)c(-c2ccccc2)c1C#N [Compound 9] | n.i. | 104 ± 22 | 19 ± 5 | 7.45 ± 4.32 nM | 14 | n.i. | n.i. | – | – | – | – | – | – | – | – |
| C#CCNc1nc(NCCCCC2CCN(Cc3ccccc3)CC2)c(C#N)c(-c2ccccc2)c1C#N [Compound 10] | n.i. | – | 1.7 ± 0.3 | – | 2.5 | – | n.i. | 840 ± 100 | 39 | 15.4 nM | – | – | – | – | – |
| C#CCN(C)c1nc(NCC2CCN(Cc3ccccc3)CC2)c(C#N)c(-c2ccccc2)c1C#N [Compound 11, 2-{[(1-benzylpiperidin-4-yl)methyl]amino}-6-[methyl(prop-2-yn-1-yl)amino]-4-phenylpyridine-3,5-dicarbonitrile] | n.i. | 55 | 270 ± 52 | 119 nM | 0.46 | – | n.i. | 5000 ± 700 | – | – | – | – | – | – | 2 |
| C#CCN(C)c1nc(NCCCC2CCN(Cc3ccccc3)CC2)c(C#N)c(-c2ccccc2)c1C#N [Compound 12] | n.i. | 393 | 14 ± 1 | 10.9 ± 1.9 nM | 36 | – | n.i. | 230 ± 30 | – | – | – | – | – | – | – |

Reference: publication PMC11818082, “2-{N-[ω-(1-Benzylpiperidin-4-yl)alkyl]amino}-6-[(prop-2-yn-1-yl)amino]pyridine-3,5-dicarbonitriles Showing High Affinity for σ1/2 Receptors” (International Journal of Molecular Sciences, 2025)
